Data published in US10308639B2, “Phosphatidylinositol 3-kinase inhibitors” (Gilead Sciences, Inc., priority 2014, dated 2019).
Like-named read-outs stand apart in the source and are kept apart here.

Columns and labels:
Assay type in all cases: biochemical
PI3Kβ = biological target: T1, PI3Kβ (Homo sapiens, UniProt P42338); test: TR-FRET enzymatic activity assay, PI3Kβ
T1 construct: made in house

PI3Kδ = biological target: T2, PI3Kδ (Homo sapiens, UniProt O00329); test: TR-FRET enzymatic activity assay, PI3Kδ
T2 construct: made in house

PI3Kγ = biological target: T3, PI3Kγ (Homo sapiens, UniProt P48736); test: TR-FRET enzymatic activity assay, PI3Kγ; conditions: read-out: PI3Kγ IC50
T3 construct: made in house
Procedure, shortened: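 Read-out is TR-FRET. The assay scores enzymatic activity of the individual PI3K isoforms in the presence of compound.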

[1] = Table 2, TR-FRET, 2x Km ATP, 30 minutes at 25° C.

T3 sequence (P48736 whole entry): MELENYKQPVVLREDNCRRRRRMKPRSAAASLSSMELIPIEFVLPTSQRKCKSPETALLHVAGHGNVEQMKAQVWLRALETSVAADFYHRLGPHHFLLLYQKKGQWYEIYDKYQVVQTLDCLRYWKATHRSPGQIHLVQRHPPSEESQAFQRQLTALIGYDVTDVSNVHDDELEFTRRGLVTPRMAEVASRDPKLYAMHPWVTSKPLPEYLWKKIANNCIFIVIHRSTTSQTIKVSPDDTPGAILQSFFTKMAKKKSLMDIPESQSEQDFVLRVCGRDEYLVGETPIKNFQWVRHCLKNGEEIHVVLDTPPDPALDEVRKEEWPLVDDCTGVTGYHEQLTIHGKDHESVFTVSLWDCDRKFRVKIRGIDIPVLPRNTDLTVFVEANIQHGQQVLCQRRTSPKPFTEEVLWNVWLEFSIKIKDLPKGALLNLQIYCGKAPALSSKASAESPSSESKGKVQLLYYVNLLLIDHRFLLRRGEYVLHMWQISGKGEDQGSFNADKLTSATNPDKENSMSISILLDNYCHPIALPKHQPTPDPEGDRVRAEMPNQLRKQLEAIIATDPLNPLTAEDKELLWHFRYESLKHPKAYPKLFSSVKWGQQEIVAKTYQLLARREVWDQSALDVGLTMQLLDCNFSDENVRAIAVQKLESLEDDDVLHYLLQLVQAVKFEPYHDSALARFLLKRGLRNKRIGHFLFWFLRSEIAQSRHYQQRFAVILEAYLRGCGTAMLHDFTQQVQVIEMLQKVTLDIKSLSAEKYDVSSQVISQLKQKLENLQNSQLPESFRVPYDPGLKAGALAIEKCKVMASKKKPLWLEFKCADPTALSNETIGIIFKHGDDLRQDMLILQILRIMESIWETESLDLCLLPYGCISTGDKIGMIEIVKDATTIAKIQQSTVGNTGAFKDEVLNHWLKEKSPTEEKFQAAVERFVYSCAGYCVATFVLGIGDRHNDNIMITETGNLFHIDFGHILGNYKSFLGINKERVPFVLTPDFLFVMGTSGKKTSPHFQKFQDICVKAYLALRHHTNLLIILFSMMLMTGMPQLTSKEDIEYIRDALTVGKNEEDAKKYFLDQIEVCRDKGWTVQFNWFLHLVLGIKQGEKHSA
T1 sequence (P42338 whole entry): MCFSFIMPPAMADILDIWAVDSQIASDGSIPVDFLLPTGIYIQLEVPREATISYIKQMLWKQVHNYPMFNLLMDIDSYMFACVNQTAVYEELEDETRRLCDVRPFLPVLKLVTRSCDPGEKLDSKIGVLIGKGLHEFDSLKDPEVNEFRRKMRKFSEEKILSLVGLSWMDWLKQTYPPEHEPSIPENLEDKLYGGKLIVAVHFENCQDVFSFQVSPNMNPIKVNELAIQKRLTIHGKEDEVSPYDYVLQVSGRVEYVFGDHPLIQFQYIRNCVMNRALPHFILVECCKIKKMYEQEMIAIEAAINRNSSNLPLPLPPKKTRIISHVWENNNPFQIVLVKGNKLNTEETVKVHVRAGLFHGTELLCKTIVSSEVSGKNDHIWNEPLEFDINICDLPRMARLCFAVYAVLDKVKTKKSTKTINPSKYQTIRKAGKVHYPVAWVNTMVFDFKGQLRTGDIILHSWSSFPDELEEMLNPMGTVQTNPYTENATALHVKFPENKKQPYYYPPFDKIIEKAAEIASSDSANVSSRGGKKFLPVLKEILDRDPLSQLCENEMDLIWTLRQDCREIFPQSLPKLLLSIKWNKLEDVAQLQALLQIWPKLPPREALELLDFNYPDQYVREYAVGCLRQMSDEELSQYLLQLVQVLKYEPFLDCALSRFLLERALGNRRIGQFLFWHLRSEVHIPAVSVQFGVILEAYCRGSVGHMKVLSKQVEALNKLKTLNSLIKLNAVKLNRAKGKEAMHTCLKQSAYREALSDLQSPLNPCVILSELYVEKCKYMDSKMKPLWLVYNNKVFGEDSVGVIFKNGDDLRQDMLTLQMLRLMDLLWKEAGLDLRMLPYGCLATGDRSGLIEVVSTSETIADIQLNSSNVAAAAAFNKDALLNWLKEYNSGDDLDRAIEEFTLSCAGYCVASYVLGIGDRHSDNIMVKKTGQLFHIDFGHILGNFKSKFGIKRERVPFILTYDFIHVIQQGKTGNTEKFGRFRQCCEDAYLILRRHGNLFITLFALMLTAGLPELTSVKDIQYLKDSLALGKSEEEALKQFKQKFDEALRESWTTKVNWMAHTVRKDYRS
T1 sequence (P27986 whole entry partner): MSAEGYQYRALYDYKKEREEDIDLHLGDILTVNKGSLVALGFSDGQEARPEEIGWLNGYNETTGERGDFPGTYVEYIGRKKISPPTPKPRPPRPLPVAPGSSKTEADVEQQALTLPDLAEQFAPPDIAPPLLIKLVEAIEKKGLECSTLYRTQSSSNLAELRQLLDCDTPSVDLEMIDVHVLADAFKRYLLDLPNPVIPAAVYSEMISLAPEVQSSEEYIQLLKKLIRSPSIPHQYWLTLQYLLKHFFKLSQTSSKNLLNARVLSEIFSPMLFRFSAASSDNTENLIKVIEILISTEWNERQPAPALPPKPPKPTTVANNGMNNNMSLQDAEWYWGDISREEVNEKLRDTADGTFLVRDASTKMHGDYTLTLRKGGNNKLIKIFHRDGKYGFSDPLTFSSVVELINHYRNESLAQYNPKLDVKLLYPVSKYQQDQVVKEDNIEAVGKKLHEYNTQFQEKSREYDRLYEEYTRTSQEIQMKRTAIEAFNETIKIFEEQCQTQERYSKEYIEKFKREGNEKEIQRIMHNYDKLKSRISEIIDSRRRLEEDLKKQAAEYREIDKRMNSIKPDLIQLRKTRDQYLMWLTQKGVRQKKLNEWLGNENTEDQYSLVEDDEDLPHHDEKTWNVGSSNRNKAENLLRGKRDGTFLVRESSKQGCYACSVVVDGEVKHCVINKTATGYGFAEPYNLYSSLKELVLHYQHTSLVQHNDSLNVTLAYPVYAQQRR
T2 sequence (O00329 whole entry): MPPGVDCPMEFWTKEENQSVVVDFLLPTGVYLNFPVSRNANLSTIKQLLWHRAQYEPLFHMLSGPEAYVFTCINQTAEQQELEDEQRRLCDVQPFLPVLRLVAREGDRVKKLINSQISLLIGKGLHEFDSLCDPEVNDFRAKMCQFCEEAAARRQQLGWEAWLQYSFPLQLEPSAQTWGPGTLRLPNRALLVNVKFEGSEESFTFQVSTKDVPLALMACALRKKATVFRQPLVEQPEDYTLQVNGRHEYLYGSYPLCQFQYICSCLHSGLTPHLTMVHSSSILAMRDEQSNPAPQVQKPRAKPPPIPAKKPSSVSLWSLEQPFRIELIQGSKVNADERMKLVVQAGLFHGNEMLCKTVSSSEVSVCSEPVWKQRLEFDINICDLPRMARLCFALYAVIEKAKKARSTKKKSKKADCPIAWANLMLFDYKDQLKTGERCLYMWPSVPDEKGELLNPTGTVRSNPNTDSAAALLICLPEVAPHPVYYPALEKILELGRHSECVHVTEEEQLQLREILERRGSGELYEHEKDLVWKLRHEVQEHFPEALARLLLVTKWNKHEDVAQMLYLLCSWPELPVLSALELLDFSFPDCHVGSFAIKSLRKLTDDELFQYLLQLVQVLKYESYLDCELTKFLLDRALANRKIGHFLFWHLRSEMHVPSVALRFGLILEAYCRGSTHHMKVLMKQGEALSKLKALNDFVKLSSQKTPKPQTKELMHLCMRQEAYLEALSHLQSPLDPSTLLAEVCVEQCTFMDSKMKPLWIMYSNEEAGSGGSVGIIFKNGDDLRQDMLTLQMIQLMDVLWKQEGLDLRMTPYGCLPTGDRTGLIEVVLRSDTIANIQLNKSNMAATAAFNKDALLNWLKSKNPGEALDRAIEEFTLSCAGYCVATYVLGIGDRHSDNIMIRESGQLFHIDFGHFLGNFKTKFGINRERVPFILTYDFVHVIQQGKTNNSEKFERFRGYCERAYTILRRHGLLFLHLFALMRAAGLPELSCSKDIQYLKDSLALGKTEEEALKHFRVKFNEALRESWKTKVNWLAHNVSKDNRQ
T2 sequence (P27986 whole entry partner): as the sequence (P27986 whole entry partner) above

IC50 (PI3Kβ; Table 2a, same assay) | IC50 (PI3Kδ; Table 2a, same assay) | IC50 (PI3Kγ; Table 2a, same assay) | IC50 (PI3Kβ; [1]) | IC50 (PI3Kδ; [1]) | IC50 (PI3Kγ; [1]) | IC50 (PI3Kγ) | Structure (SMILES)
1100 nM | 180 nM | > 10000 nM | – | – | – | – | Cc1n[nH]cc1-n1c([C@@H](Nc2nc(N)nc(N)c2Cl)C2CC2)nc2c(Cl)cc(F)cc2c1=O [Compound 221, (S)-8-chloro-2-(cyclopropyl((2,6-diamino-5-chloropyrimidin-4-yl)amino)methyl)-6-fluoro-3-(3-methyl-1H-pyrazol-4-yl)quinazolin-4(3H)-one]
– | – | – | 1 nM | 3 nM | 5100 nM | – | CC[C@H](Nc1nc(N)nc(N)c1C#N)c1nc2c(C#N)cccc2c(=O)n1-c1cc[nH]n1 [Compound 75, (S)-2-(1-((2,6-diamino-5-cyanopyrimidin-4-yl)amino)propyl)-4-oxo-3-(1H-pyrazol-3-yl)-3,4-dihydroquinazoline-8-carbonitrile]
– | – | – | 5 nM | 1 nM | 150 nM | – | Cc1nc(N)nc(N[C@@H](c2ccccc2)c2nc3cccc(Cl)c3c(=O)n2-c2cn[nH]c2)c1C#N [Compound 108, (S)-2-amino-4-(((5-chloro-4-oxo-3-(1H-pyrazol-4-yl)-3,4-dihydroquinazolin-2-yl)(phenyl)methyl)amino)-6-methylpyrimidine-5-carbonitrile]
26 nM | 18 nM | 2000 nM | – | – | – | – | C[C@H](Nc1nc(N)nc(C(F)F)c1C#N)c1nc2cccc(C(F)F)c2c(=O)n1-c1cc[nH]n1 [Compound 176, (S)-2-amino-4-(difluoromethyl)-6-((1-(5-(difluoromethyl)-4-oxo-3-(1H-pyrazol-3-yl)-3,4-dihydroquinazolin-2-yl)ethyl)amino)pyrimidine-5-carbonitrile]
160 nM | 23 nM | 2020 nM | – | – | – | – | CCC[C@H](Nc1nc(N)nc(N)c1Cl)c1nc2cccc(Cl)c2c(=O)n1-c1cn[nH]c1 [Compound 250, (S)-5-chloro-2-(1-((2,6-diamino-5-chloropyrimidin-4-yl)amino)butyl)-3-(1H-pyrazol-4-yl)quinazolin-4(3H)-one]
85 nM | 49 nM | 5000 nM | – | – | – | – | C[C@H](Nc1nc(N)nc(N)c1Cl)c1nc2ccc(Cl)c(C(F)F)c2c(=O)n1-c1cc[nH]n1 [Compound 229, (S)-6-chloro-2-(1-((2,6-diamino-5-chloropyrimidin-4-yl)amino)ethyl)-5-(difluoromethyl)-3-(1H-pyrazol-3-yl)quinazolin-4(3H)-one]
78 nM | 27 nM | 950 nM | – | – | – | – | C[C@H](Nc1nc(N)nc(C(F)F)c1C#N)c1nc2cccc(C(F)F)c2c(=O)n1-c1cn[nH]c1 [Compound 179, (S)-2-amino-4-(difluoromethyl)-6-((1-(5-(difluoromethyl)-4-oxo-3-(1H-pyrazol-4-yl)-3,4-dihydroquinazolin-2-yl)ethyl)amino)pyrimidine-5-carbonitrile]
62 nM | 21 nM | 4700 nM | – | – | – | – | C[C@H](Nc1nc(N)nc(C(F)F)c1C#N)c1nc2c(F)ccc(F)c2c(=O)n1-c1cc[nH]n1 [Compound 192, (S)-2-amino-4-((1-(5,8-difluoro-4-oxo-3-(1H-pyrazol-3-yl)-3,4-dihydroquinazolin-2-yl)ethyl)amino)-6-(difluoromethyl)pyrimidine-5-carbonitrile]
8 nM | 6 nM | 4400 nM | – | – | – | – | C[C@H](Nc1nc(N)nc(N)c1Cl)c1nc2cccc(C(F)(F)F)c2c(=O)n1-c1cc[nH]n1 [Compound 208, (S)-2-(1-((2,6-diamino-5-chloropyrimidin-4-yl)amino)ethyl)-3-(1H-pyrazol-3-yl)-5-(trifluoromethyl)quinazolin-4(3H)-one]
2 nM | 5 nM | 6080 nM | – | – | – | – | C[C@H](Nc1nc(N)nc(N)c1C#N)c1nc2c(C(F)F)cc(F)cc2c(=O)n1-c1cc[nH]n1 [Compound 140]
– | – | – | 70 nM | 0.4 nM | 8200 nM | – | CC[C@H](Nc1ncnc2scnc12)c1nc2cccc(S(C)(=O)=O)c2c(=O)n1-c1cc[nH]n1 [Compound 87, (S)-5-(methylsulfonyl)-3-(1H-pyrazol-3-yl)-2-(1-(thiazolo[5,4-d]pyrimidin-7-ylamino)propyl)quinazolin-4(3H)-one]
– | – | – | 150 nM | 9 nM | 740 nM | – | N#Cc1c(N)nc(N)nc1N1CCC[C@H]1c1nc2cccc(Cl)c2c(=O)n1-c1cn[nH]c1 [Compound 23, (S)-2,4-diamino-6-(2-(5-chloro-4-oxo-3-(1H-pyrazol-4-yl)-3,4-dihydroquinazolin-2-yl)pyrrolidin-1-yl)pyrimidine-5-carbonitrile]
– | – | – | 1300 nM | 88 nM | – | > 10000 nM | CC[C@H](Nc1ncnc2sccc12)c1nc2c(Cl)ccc(Cl)c2c(=O)n1-c1cn[nH]c1 [Compound 56, (S)-5,8-dichloro-3-(1H-pyrazol-4-yl)-2-(1-(thieno[2,3-d]pyrimidin-4-ylamino)propyl)quinazolin-4(3H)-one]
700 nM | 540 nM | > 10000 nM | – | – | – | – | C[C@H](Nc1nc(C(F)F)nc(N)c1C#N)c1nc2cccc(Cl)c2c(=O)n1-c1cc[nH]n1 [Compound 197, (S)-4-amino-6-((1-(5-chloro-4-oxo-3-(1H-pyrazol-3-yl)-3,4-dihydroquinazolin-2-yl)ethyl)amino)-2-(difluoromethyl)pyrimidine-5-carbonitrile]

The next lines start with the molecule.

Structure (SMILES) | IC50 (PI3Kβ; Table 2a, same assay) | IC50 (PI3Kδ; Table 2a, same assay) | IC50 (PI3Kγ; Table 2a, same assay) | IC50 (PI3Kβ; [1]) | IC50 (PI3Kδ; [1]) | IC50 (PI3Kγ; [1]) | IC50 (PI3Kγ)
C[C@H](Nc1nc(N)nc(N)c1Cl)c1nc2c(Cl)ccc(Cl)c2c(=O)n1-c1cn[nH]c1 [Compound 158, (S)-5,8-dichloro-2-(1-((2,6-diamino-5-chloropyrimidin-4-yl)amino)ethyl)-3-(1H-pyrazol-4-yl)quinazolin-4(3H)-one] | 83 nM | 10 nM | 5200 nM | – | – | – | –
C[C@H](Nc1nc(N)nc(N)c1C#N)c1nc2cc(F)cc(Cl)c2c(=O)n1-c1cc[nH]n1 [Compound 237, (S)-2,4-diamino-6-((1-(5-chloro-7-fluoro-4-oxo-3-(1H-pyrazol-3-yl)-3,4-dihydroquinazolin-2-yl)ethyl)amino)pyrimidine-5-carbonitrile] | 2 nM | 2 nM | 1400 nM | – | – | – | –
CC[C@H](Nc1nc(Cl)nc2[nH]ncc12)c1nc2c(Cl)ccc(Cl)c2c(=O)n1-c1cc[nH]n1 [Compound 82, (S)-5,8-dichloro-2-(1-((6-chloro-1H-pyrazolo[3,4-d]pyrimidin-4-yl)amino)propyl)-3-(1H-pyrazol-3-yl)quinazolin-4(3H)-one] | – | – | – | 4700 nM | 4100 nM | – | > 10000 nM
CC[C@H](Nc1nc(N)nc(N)c1C#N)c1nc2c(C)cccc2c(=O)n1-c1cc[nH]n1 [Compound 34, (S)-2,4-diamino-6-((1-(8-methyl-4-oxo-3-(1H-pyrazol-3-yl)-3,4-dihydroquinazolin-2-yl)propyl)amino)pyrimidine-5-carbonitrile] | – | – | – | 7 nM | 8 nM | 6100 nM | –
CCC[C@H](Nc1nc(N)nc(N)c1C#N)c1nc2c(Cl)ccc(Cl)c2c(=O)n1-c1cc[nH]n1 [Compound 254, (S)-2,4-diamino-6-((1-(5,8-dichloro-4-oxo-3-(1H-pyrazol-3-yl)-3,4-dihydroquinazolin-2-yl)butyl)amino)pyrimidine-5-carbonitrile] | 2 nM | 2 nM | 1400 nM | – | – | – | –
C[C@H](Nc1nc(N)nc(N)c1Cl)c1nc2cccc(Cl)c2c(=O)n1-c1cc(Cl)[nH]n1 [Compound 154, (S)-5-chloro-3-(5-chloro-1H-pyrazol-3-yl)-2-(1-((2,6-diamino-5-chloropyrimidin-4-yl)amino)ethyl)quinazolin-4(3H)-one] | 100 nM | 13 nM | 3300 nM | – | – | – | –
C[C@H](Nc1nc(N)nc(N)c1C#N)c1nc2c(C(F)(F)F)cccc2c(=O)n1-c1cc[nH]n1 [Compound 135, (S)-2,4-diamino-6-((1-(4-oxo-3-(1H-pyrazol-3-yl)-8-(trifluoromethyl)-3,4-dihydroquinazolin-2-yl)ethyl)amino)pyrimidine-5-carbonitrile] | 2 nM | 1 nM | 340 nM | – | – | – | –
CC[C@H](Nc1ncnn2ccnc12)c1nc2c(Cl)ccc(Cl)c2c(=O)n1-c1cn[nH]c1 [Compound 40, (S)-5,8-dichloro-2-(1-(imidazo[2,1-f][1,2,4]triazin-4-ylamino)propyl)-3-(1H-pyrazol-4-yl)quinazolin-4(3H)-one] | – | – | – | 280 nM | 38 nM | 8700 nM | –
C[C@H](Nc1nc(N)nc(N)c1C(F)(F)F)c1nc2cccc(Cl)c2c(=O)n1-c1cc[nH]n1 [Compound 201, (S)-5-chloro-2-(1-((2,6-diamino-5-(trifluoromethyl)pyrimidin-4-yl)amino)ethyl)-3-(1H-pyrazol-3-yl)quinazolin-4(3H)-one] | 3 nM | 3 nM | 1000 nM | – | – | – | –
CC[C@H](Nc1ncnc2scnc12)c1nc2c(Cl)ccc(Cl)c2c(=O)n1-c1n[nH]cc1Br [Compound 86, (S)-3-(4-bromo-1H-pyrazol-3-yl)-5,8-dichloro-2-(1-(thiazolo[5,4-d]pyrimidin-7-ylamino)propyl)quinazolin-4(3H)-one] | – | – | – | 340 nM | 19 nM | – | > 10000 nM
Nc1nc(N)c(Cl)c(N[C@H](c2nc3c(C(F)(F)F)cccc3c(=O)n2-c2cc[nH]n2)C2CC2)n1 [Compound 134, (S)-2-(cyclopropyl((2,6-diamino-5-chloropyrimidin-4-yl)amino)methyl)-3-(1H-pyrazol-3-yl)-8-(trifluoromethyl)quinazolin-4(3H)-one] | 37 nM | 24 nM | 9300 nM | – | – | – | –
CC[C@H](Nc1ncnc2ccc(Cl)nc12)c1nc2c(Cl)ccc(Cl)c2c(=O)n1-c1cn[nH]c1 [Compound 42, (S)-5,8-dichloro-2-(1-((6-chloropyrido[3,2-d]pyrimidin-4-yl)amino)propyl)-3-(1H-pyrazol-4-yl)quinazolin-4(3H)-one] | – | – | – | 77 nM | 10 nM | 460 nM | –
